Data: a melting point compilation (Tetko et al.; mined from patent text by program, amines drawn as free bases though some values may be those of a salt)

| Compound | melting point [°C] |
| --- | --- |
| O=C(NC=CC1OC1CCCNC(=O)c1ccc(OC(F)(F)F)cc1)c1ccc(OC(F)(F)F)cc1 (stereo unspecified) | 121 to 123 |
| CCCc1nc2c(N)nc(C)c(C)c2n1CCCCCCS(C)(=O)=O | 157 to 158 |
| Cn1cc(C(=O)NCc2ccc(Cl)cc2)c(=O)c2cc(CN3CCOCC3)cc(C#CCn3ccnc3)c21 | 178 to 180 |
| COc1ccc(C2=NN(CC(=O)c3ccc4ccccc4c3)C(=O)[C@H]3CCCC[C@@H]23)cc1OC (relative stereo) | 89 to 90 |
| O=C(CN1CCSCC1)N1CCN(Cc2ccc3c(c2)-c2[nH]nc(-c4ccsc4)c2C3)CC1 | 226 to 228 |
| COc1ccc(C2(C#Cc3cccc(NC(C)=O)c3)CCC(=O)CC2)cc1OC1CCCC1 | 63 to 64 |
| NC(=O)c1ncn2c1[C@@H]1CCN1C(=O)c1cc(Cl)ccc1-2 | 251 to 253 |
| COC(=O)c1cc2ccc(C(=O)NCCN3CCOCC3)cc2[nH]1 | 226 to 228 |
| C=C(C)C(=O)Oc1ccc(CNS(C)(=O)=O)cc1 | 101 to 102 |
| CC(=NO)c1ccc(OCC(O)(Cn2cncn2)C(C)(C)C)cc1 (stereo unspecified) | 129 to 132 |
| O=C1c2ccccc2COc2cc(Cl)ccc21 | 105 to 106 |
| CC(=O)NC1CCN(c2ccccn2)CC1 | 165 to 168 |
| COC(=O)c1cc(C(=O)c2c(C)c(OC)c3c(OCc4ccccc4)cccn23)ccc1NC(=O)C(F)(F)F | 214 |
| CCOC(=O)c1cn(-c2nc(NC(C)(C)C)c(F)cc2F)c2c(C)c(F)c(F)cc2c1=O | 207 to 211 |
| O=C(Oc1ccccc1)c1cc2cccc(O)c2[nH]1 | 156 to 157 |
| CCOC(=O)C(CC(=O)c1cccc(F)c1)(NC(C)=O)C(=O)OCC | 121 to 123 |

| Compound | melting point [°C] |
| --- | --- |
| O=c1c2c(Cc3ccc(O)cc3)n[nH]c2c2cccnc2n1-c1ccccc1 | 316 to 317 |
| Cc1cc(C(=O)NN=C(N)CS(=O)(=O)c2ccccc2)oc1C | 197 to 199 |
| O=C(O)CSc1c(C(=O)O)[nH]c2cc(Cl)cc(Cl)c12 | 152 to 153 |
| CCCCCCCCCCCCCC(=O)N[C@H]1CCCNC(=O)C1 | 97 to 98 |
| O=C(O)c1ccccc1COc1ccccc1Br | 175 to 177 |
| Cc1ccc(-c2cc3c4cc(C)ccc4n(C)c3n(C)c2=O)c(C)c1 | 150 |
| CC(=O)Nc1cc(-c2c(-c3cccc(C)c3)nc3cccnn23)ccn1 | 227 to 228 |
| CNS(=O)(=O)Cc1ccc2[nH]cc(CCN)c2c1 | 179 to 181 |
| CC(=O)Nc1ccc2c3c(cccc13)S(=O)(=O)N2CCCCl | 205 |
| CCOC(=O)c1ccc(NS(C)(=O)=O)c(Oc2ccc(F)cc2F)c1 | 111 to 113 |
| CCn1cc(C(=O)O)c(=O)c2cc(F)c(N3CCN(Cc4ccc([N+](=O)[O-])cc4)CC3)c(F)c21 | 241 to 242 |
| Cc1nn(CCO)c(C)c1S(=O)(=O)c1cc(Cl)cc(Cl)c1 | 199 to 200 |
| CC[Si](C#Cc1ccc2nc(-n3ccnc3)nc(NCCOC)c2c1)(CC)CC | 158 to 160 |
| BrCCC1(c2ccccc2)OCCO1 | 57 to 58 |
| O=C(C(=O)N1CCC(Oc2cccc(Cl)c2)CC1)c1c[nH]c2ccccc12 | 145 to 147 |
